Measurements reported in patent US20070026506A1, “METHOD FOR THE PRODUCTION OF TAXOL AND/OR TAXANES FROM CULTURES OF HAZEL CELLS” (Centro Biotecnologie Avanzate, priority 2005, published 2007).

Experiments:
Assay type in all cases: cell-based
callus of Taxus baccata = test: regeneration of callus (formation of young plants), Taxus baccata; details: about three months from culturing
[1] = system: explants of Corylus avellana; test: callus induction from explants of Corylus avellana; details: for CALLUS INDUCTION 15 days Leaves (%) / CALLUS INDUCTION 30 days Leaves (%): C. avellana leaves; for CALLUS INDUCTION 15 days Seeds (%) / CALLUS INDUCTION 30 days Seeds (%): C. avellana seeds; for CALLUS INDUCTION 15 days Stems (%) / CALLUS INDUCTION 30 days Stems (%): C. avellana stems
Procedure: (§1) Therefore, in vitro cultures of plant tissues were prepared using leaves, stems and seeds of Corylus avellana (hazel) and of Taxus baccata. Both species used derive from land cultivations in Piedmont and Liguria.
(§2) The plant material was first sterilised, immersing it in a 5% NaClO solution for 20 minutes, and then washed with sterile distilled water three times.
(§3) The plant parts were fragmented and transferred into sterile Petri dishes containing MS solid medium at a concentration of 4.3 g/l, containing vitamins (1 ml/l), sucrose (20 g/l), agar (10 g/l) and phytohormones at different concentrations, all previously sterilised in an autoclave at 121° C. for 15 minutes.
(§4) In the preparation of cultures in vitro 2,4-dichlorophenoxyacetic acid (2,4-D), naphthaleneacetic acid (NAA), benzyladenine (BA) were used as phytohormones, in the following combinations and concentrations: • 2,4-D 1 mg/l • 2,4-D 0.5 mg/l • BA 1 mg/l • BA 0.5 mg/l • 2,4-D 0.5 mg/l+BA 1 mg/l • 2,4-D 1 mg/l+BA 0.5 mg/l • NAA 2 mg/l • NAA 2 mg/l+BA 0.5 mg/l Callus Induction
(§5) For each type of plant tissue (leaf, stem, seed) and for each species (taxus, hazel) at least 96 dishes were prepared: 12 dishes for each hormone concentration or combination. The dishes containing the plant material were kept inside a phytochamber, in the dark and at a constant temperature of 26° C.
(§6) The fragments were transferred, every 15 days, into new dishes with fresh medium containing the corresponding starting hormone or mixture of hormones. After 15 and 30 days from the culturing of the hazel differentiated tissue explants, the formation of the callus was evaluated. The formation of the callus for the taxus was evaluated at 30 and at 60 days, since before then the callus was not clear.

[2] = system: explants of Taxus baccata; test: callus induction from explants of Taxus baccata; details: for CALLUS INDUCTION 30 days Leaves (%) / CALLUS INDUCTION 60 days Leaves (%): T. baccata leaves; for CALLUS INDUCTION 30 days Seeds (%) / CALLUS INDUCTION 60 days Seeds (%): T. baccata seeds; for CALLUS INDUCTION 30 days Stems (%) / CALLUS INDUCTION 60 days Stems (%): T. baccata stems
Procedure: as §1, §2, §3, §4, §5, §6

[3] = system: callus of Corylus avellana; test: regeneration of callus (formation of young plants), Corylus avellana; details: about three months from culturing

`O=C(O)COc1ccc(Cl)cc1Cl` [2,4-D, 2,4-dichlorophenoxyacetic acid] was tested, and the “FORMATION OF YOUNG PLANTS (%) T. baccata” value (callus of Taxus baccata; hormone 0.5 mg/l) was 0%, the “FORMATION OF YOUNG PLANTS (%) T. baccata” value (callus of Taxus baccata; hormone 1 mg/l) was 0% and the “CALLUS INDUCTION 15 days Leaves (%)” value ([1]; hormone 0.5 mg/l) was 40.8%. The “CALLUS INDUCTION 15 days Leaves (%)” value ([1]; hormone 1 mg/l) was 35.3%, the “CALLUS INDUCTION 30 days Leaves (%)” value ([1]; hormone 0.5 mg/l) was 41.86% and the “CALLUS INDUCTION 30 days Leaves (%)” value ([1]; hormone 1 mg/l) was 35.5%. For the same molecule, the “CALLUS INDUCTION 15 days Seeds (%)” value ([1]; hormone 0.5 mg/l) was 27.7%, the “CALLUS INDUCTION 15 days Seeds (%)” value ([1]; hormone 1 mg/l) was 28.3% and the “CALLUS INDUCTION 30 days Seeds (%)” value ([1]; hormone 0.5 mg/l) was 61.6%. For the same molecule, the “CALLUS INDUCTION 30 days Seeds (%)” value ([1]; hormone 1 mg/l) was 56.2%, the “CALLUS INDUCTION 15 days Stems (%)” value ([1]; hormone 0.5 mg/l) was 30.5% and the “CALLUS INDUCTION 15 days Stems (%)” value ([1]; hormone 1 mg/l) was 25.0%. The “CALLUS INDUCTION 30 days Stems (%)” value ([1]; hormone 0.5 mg/l) was 75.0%, the “CALLUS INDUCTION 30 days Stems (%)” value ([1]; hormone 1 mg/l) was 68.5% and the “CALLUS INDUCTION 30 days Leaves (%)” value ([2]; hormone 0.5 mg/l) was 10.9%. The “CALLUS INDUCTION 30 days Leaves (%)” value ([2]; hormone 1 mg/l) was 25.3%, the “CALLUS INDUCTION 60 days Leaves (%)” value ([2]; hormone 0.5 mg/l) was 63.8% and the “CALLUS INDUCTION 60 days Leaves (%)” value ([2]; hormone 1 mg/l) was 56.3%. The “CALLUS INDUCTION 30 days Seeds (%)” value ([2]; hormone 0.5 mg/l) was 17.4%, the “CALLUS INDUCTION 30 days Seeds (%)” value ([2]; hormone 1 mg/l) was 26.5% and the “CALLUS INDUCTION 60 days Seeds (%)” value ([2]; hormone 0.5 mg/l) was 43.7%. The “CALLUS INDUCTION 60 days Seeds (%)” value ([2]; hormone 1 mg/l) was 37.7%, the “CALLUS INDUCTION 30 days Stems (%)” value ([2]; hormone 0.5 mg/l) was 46.8% and the “CALLUS INDUCTION 30 days Stems (%)” value ([2]; hormone 1 mg/l) was 67.0%. For the same molecule, the “CALLUS INDUCTION 60 days Stems (%)” value ([2]; hormone 0.5 mg/l) was 65.8%, the “CALLUS INDUCTION 60 days Stems (%)” value ([2]; hormone 1 mg/l) was 76.3% and the “FORMATION OF YOUNG PLANTS (%) C. avellana” value ([3]; hormone 0.5 mg/l) was 15.8%. The “FORMATION OF YOUNG PLANTS (%) C. avellana” value ([3]; hormone 1 mg/l) was 15.5%.
For `c1ccc(CNc2ncnc3nc[nH]c23)cc1` [BA, benzyladenine], the “FORMATION OF YOUNG PLANTS (%) T. baccata” value (callus of Taxus baccata; hormone 0.5 mg/l) was 0%, the “FORMATION OF YOUNG PLANTS (%) T. baccata” value (callus of Taxus baccata; hormone 1 mg/l) was 0% and the “CALLUS INDUCTION 15 days Leaves (%)” value ([1]; hormone 0.5 mg/l) was 1.7%. The “CALLUS INDUCTION 15 days Leaves (%)” value ([1]; hormone 1 mg/l) was 0%, the “CALLUS INDUCTION 30 days Leaves (%)” value ([1]; hormone 0.5 mg/l) was 4.6% and the “CALLUS INDUCTION 30 days Leaves (%)” value ([1]; hormone 1 mg/l) was 4.6%. For the same molecule, the “CALLUS INDUCTION 15 days Seeds (%)” value ([1]; hormone 0.5 mg/l) was 5.1%, the “CALLUS INDUCTION 15 days Seeds (%)” value ([1]; hormone 1 mg/l) was 4.0% and the “CALLUS INDUCTION 30 days Seeds (%)” value ([1]; hormone 0.5 mg/l) was 10.3%. The “CALLUS INDUCTION 30 days Seeds (%)” value ([1]; hormone 1 mg/l) was 13.8%, the “CALLUS INDUCTION 15 days Stems (%)” value ([1]; hormone 0.5 mg/l) was 0% and the “CALLUS INDUCTION 15 days Stems (%)” value ([1]; hormone 1 mg/l) was 2.5%. For the same molecule, the “CALLUS INDUCTION 30 days Stems (%)” value ([1]; hormone 0.5 mg/l) was 0%, the “CALLUS INDUCTION 30 days Stems (%)” value ([1]; hormone 1 mg/l) was 15.0% and the “suitability for inducing callus from hazel” value ([1]; used alone at a concentration of 0.5 and 1 mg/l) was “least suitable for inducing callus from hazel”. The “CALLUS INDUCTION 30 days Leaves (%)” value ([2]; hormone 0.5 mg/l) was 2.0%, the “CALLUS INDUCTION 30 days Leaves (%)” value ([2]; hormone 1 mg/l) was 2.0% and the “CALLUS INDUCTION 60 days Leaves (%)” value ([2]; hormone 0.5 mg/l) was 4.5%. For the same molecule, the “CALLUS INDUCTION 60 days Leaves (%)” value ([2]; hormone 1 mg/l) was 3.0%, the “CALLUS INDUCTION 30 days Seeds (%)” value ([2]; hormone 0.5 mg/l) was 6.2% and the “CALLUS INDUCTION 30 days Seeds (%)” value ([2]; hormone 1 mg/l) was 0%. The “CALLUS INDUCTION 60 days Seeds (%)” value ([2]; hormone 0.5 mg/l) was 32.7%, the “CALLUS INDUCTION 60 days Seeds (%)” value ([2]; hormone 1 mg/l) was 0% and the “CALLUS INDUCTION 30 days Stems (%)” value ([2]; hormone 0.5 mg/l) was 2.0%. The “CALLUS INDUCTION 30 days Stems (%)” value ([2]; hormone 1 mg/l) was 2.5%, the “CALLUS INDUCTION 60 days Stems (%)” value ([2]; hormone 0.5 mg/l) was 9.0% and the “CALLUS INDUCTION 60 days Stems (%)” value ([2]; hormone 1 mg/l) was 2.8%. The “activity in callus induction of taxus cultures” value ([2]; taxus cultures, exception stated for callus from seed at 60 days) was “not to be very active”, the “FORMATION OF YOUNG PLANTS (%) C. avellana” value ([3]; hormone 0.5 mg/l) was 13.3% and the “FORMATION OF YOUNG PLANTS (%) C. avellana” value ([3]; hormone 1 mg/l) was 8.7%.
For `O=C(O)Cc1cccc2ccccc12` [NAA, naphthaleneacetic acid], the “FORMATION OF YOUNG PLANTS (%) T. baccata” value (callus of Taxus baccata; hormone 2 mg/l) was 1%, the “CALLUS INDUCTION 15 days Leaves (%)” value ([1]; hormone 2 mg/l) was 8.3% and the “CALLUS INDUCTION 30 days Leaves (%)” value ([1]; hormone 2 mg/l) was 22.1%. For the same molecule, the “CALLUS INDUCTION 15 days Seeds (%)” value ([1]; hormone 2 mg/l) was 4.4%, the “CALLUS INDUCTION 30 days Seeds (%)” value ([1]; hormone 2 mg/l) was 41.3% and the “CALLUS INDUCTION 15 days Stems (%)” value ([1]; hormone 2 mg/l) was 8.3%. The “CALLUS INDUCTION 30 days Stems (%)” value ([1]; hormone 2 mg/l) was 5.4%, the “CALLUS INDUCTION 30 days Leaves (%)” value ([2]; hormone 2 mg/l) was 23.8% and the “CALLUS INDUCTION 60 days Leaves (%)” value ([2]; hormone 2 mg/l) was 33.0%. The “CALLUS INDUCTION 30 days Seeds (%)” value ([2]; hormone 2 mg/l) was 28.0%, the “CALLUS INDUCTION 60 days Seeds (%)” value ([2]; hormone 2 mg/l) was 52.0% and the “CALLUS INDUCTION 30 days Stems (%)” value ([2]; hormone 2 mg/l) was 55.0%. For the same molecule, the “CALLUS INDUCTION 60 days Stems (%)” value ([2]; hormone 2 mg/l) was 56.3% and the “FORMATION OF YOUNG PLANTS (%) C. avellana” value ([3]; hormone 2 mg/l) was 14.4%.
